# Tests used:
# cathepsin B [1] = biological target: T1, cathepsin B (Rattus norvegicus, UniProt P00787); assay: Cathepsin B activity in living CC531 colon cancer cells (CSLM, (Z-Arg)^2 -cresyl violet); format: cell-based; settings: living CC531 cells, 10 μM substrate (printed μm), 5 min, PBS
# Procedure: An established rat colon carcinoma cell line, CC531, was used for all experiments. The parental cell line was obtained from a 1,2-dimethylhydrazine-induced moderately differentiated and weakly immunogenic colon adenocarcinoma in WAG-Rij rats (44). Cells were cultured in vitro at 37° C. as monolayers in Dulbecco's modification of Eagle's medium (ICN Biomedicals, Irvine, Ayrshire, UK) supplemented with 10% (w/v) fetal bovine serum, 2 mM glutamine, 100 IU penicillin/ml and 100 μg streptomycin/ml. Cells were washed in PBS and, after detachment by scraping and centrifugation (250 g, room temperature, 10 min), a single cell suspension at a final concentration of 1×10^6 cancer cells in 50 μl of PBS was obtained with a viability of at least 95% (45,46). Cell suspension were either used for cytochemical purposes or for in vivo administration to induce metastases in the liver.
# (§1) Cathepsin B activity was detected in real-time in living CC531 cells and freshly prepared living rat hepatocytes after isolation by collagenase perfusion of livers of male mature rats after 24 h of starvation (47). At time point zero, cell preparations were diluted 20-fold in PBS containing either 10 μM (Z-Arg)^2 -cresyl violet (Enzyme Systems Products, Dublin, Calif.) as fluorogenic substrate for cathepsin B (48) or 10 μM substrate and 20 μM FMK (Protek, Dublin, Calif.), as selective cathepsin B inhibitor (40,41). The fluorogenic substrate is not fluorescent but after proteolytic cleavage, liberated cresyl violet is fluorescent. Synthesis of the substrate is described elsewhere in Ref. 48. The substrate was dissolved first in dimethyl formamide (final concentration in the incubation medium was 1% (v/v)). An aliquot of 100 μl of the cell suspensions was brought into a well formed by a stainless steel ring attached to a glass slide (49). Images of cells were captured in real-time with a Leica CSLM fitted to a Leica Fluovert inverted microscopic equipped with a PL APO oil-immersion objective (×63, NA 1.40). Excitation was performed at a wavelength of 560 nm and fluorescence was captured at greater than 580 nm. Excitation with the use of green light is harmless to living cells. The pinhole aperture was set at 100 giving an optimized image (50). With fixed pinhole, filter combination and a laser power setting adjusted to give minimal fading, the photomultiplier gain and photometric offset were optimized. Cells were subjected to optical serial sectioning after each 60 s of incubation up to 300 s. Images in the X-Y plane were recorded with intervals of 0.5 μm in the Z direction. For analysis, each optical section was averaged eight times. Images were recorded in a 512×512 pixel format. The size of each pixel represented 0.015 μm^2 in the object. […]
# cathepsin B [2] = biological target: T1, cathepsin B; assay: Cathepsin B activity in living rat hepatocytes (CSLM, (Z-Arg)^2 -cresyl violet); format: cell-based; settings: living rat hepatocyte, 10 μM substrate (printed μm), 5 min, PBS
# Procedure: as §1, with “Excitation with the use of green light is harmless to living cells. The pinhole aperture was set at 100 giving an optimized image (50). With fixed pinhole, filter combination and a laser power setting adjusted to give minimal fading, the photomultiplier gain and photometric offset were optimized. Cells were subjected to optical serial sectioning after each 60 s of incubation up to 300 s.” left out, “For analysis, each optical section was averaged eight times.” left out, “format.” for “format. The size of each pixel represented 0.015 μm^2 in the object.”
# [3] = tested on: living hepatocytes and colon cancer cells; assay: Penetration of cresyl violet-based substrates into living cells; format: cell-based, rat
# Procedure: Cathepsin B activity was detected in real-time in living CC531 cells and freshly prepared living rat hepatocytes after isolation by collagenase perfusion of livers of male mature rats after 24 h of starvation (47). At time point zero, cell preparations were diluted 20-fold in PBS containing either 10 μM (Z-Arg)^2 -cresyl violet (Enzyme Systems Products, Dublin, Calif.) as fluorogenic substrate for cathepsin B (48) or 10 μM substrate and 20 μM FMK (Protek, Dublin, Calif.), as selective cathepsin B inhibitor (40,41). The fluorogenic substrate is not fluorescent but after proteolytic cleavage, liberated cresyl violet is fluorescent. Synthesis of the substrate is described elsewhere in Ref. 48. The substrate was dissolved first in dimethyl formamide (final concentration in the incubation medium was 1% (v/v)). An aliquot of 100 μl of the cell suspensions was brought into a well formed by a stainless steel ring attached to a glass slide (49). […] Excitation was performed at a wavelength of 560 nm and fluorescence was captured at greater than 580 nm. […] Images in the X-Y plane were recorded with intervals of 0.5 μm in the Z direction. […] Images were recorded in a 512×512 pixel format. […]
# The localization properties of cresyl violet in individual cells were investigated using confocal microscopy. […] The fluorescence is localized only in patches at the plasma membrane. […]
# T1 sequence (P00787 80-333): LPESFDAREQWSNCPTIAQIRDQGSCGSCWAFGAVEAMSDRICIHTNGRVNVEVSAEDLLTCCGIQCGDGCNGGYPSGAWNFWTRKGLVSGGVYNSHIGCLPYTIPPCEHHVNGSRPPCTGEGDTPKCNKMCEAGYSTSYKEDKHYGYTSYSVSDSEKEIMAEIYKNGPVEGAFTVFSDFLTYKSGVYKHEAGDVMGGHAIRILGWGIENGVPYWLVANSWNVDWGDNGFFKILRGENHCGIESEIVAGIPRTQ
compound,measurement,setting,value
N=C(N)NCCC[C@H](NC(=O)OCc1ccccc1)C(=O)NC1=CC2Oc3cc(NC(=O)[C@H](CCCNC(=N)N)NC(=O)OCc4ccccc4)ccc3N=C2c2ccccc21 (stereo partly drawn) [[Z-Arg]^2-cresyl violet],localization of cathepsin B activity (cresyl violet fluorescence),cathepsin B [1],found at the plasma membrane (large arrowheads) and intracellularly
same,localization of cathepsin B activity (cresyl violet fluorescence),cathepsin B [2],present in granular lysosome-like intracellular compartments
same,cell penetration,[3],penetrate living cells

# From patent publication US6235493A, “Amino acid substituted-cresyl violet, synthetic fluorogenic substrates for the analysis of agents in individual in vivo cells or tissue” (priority 1998, dated 2001)
